{"source": "patent US4735954A", "about": "“Anti-rheumatic agent” (priority 1985, dated 1988)", "key": {"[1]": {"tested_on": "Adjuvant-induced Secondary Inflammation", "assay": "adjuvant-induced arthritis in rats, secondary inflammation", "type": "in vivo, female Wistar rats", "method": "(§1) Eight female Wistar rats in each group, weighing 140-200 g were used. The arthritis was induced by intradermal injection of Mycobacterium butyricum suspended in liquid paraffin (0.6 mg/0.1 ml) as the adjuvant to tail. The change in volume of both legs due to the formation of edema was measured 12, 16 and 19 days after the adjuvant challenge. In addition, a severity of the secondary inflammation observed in auricles, paws, legs and tail was graded into the degrees of 0-4."}, "[2]": {"tested_on": "Adjuvant-induced Edema in Left Legs", "assay": "adjuvant-induced arthritis in rats, edema in left legs", "type": "in vivo, female Wistar rats", "method": "as §1"}, "[3]": {"tested_on": "Adjuvant-induced Edema in Right Legs", "assay": "adjuvant-induced arthritis in rats, edema in right legs", "type": "in vivo, female Wistar rats", "method": "as §1"}, "[4]": {"tested_on": "Arthus reaction (type III allergic reaction)", "settings": "own earlier publication; cited from earlier work"}, "[5]": {"assay": "acute toxicity in mice", "settings": "mouse, in vivo"}, "[6]": {"settings": "disclosed in earlier patents; cited from earlier work"}, "[7]": {"settings": "disclosed in earlier patents; cited from earlier work", "remark": "listed apart in the source"}, "[8]": {"assay": "acute toxicity in rats", "settings": "rat, in vivo"}, "[9]": {"tested_on": "rats and mice", "assay": "toxicological studies (acute, subacute, chronic)", "type": "in vivo", "settings": "acute (several routes), subacute (oral, one month), chronic (oral, six months)"}, "[10]": {"tested_on": "type I (immediate type) allergic reaction", "settings": "own earlier publications; cited from earlier work"}, "[11]": {"tested_on": "adjuvant-induced experimental arthritis", "assay": "adjuvant-induced experimental arthritis in rats (overall)", "type": "in vivo", "settings": "oral, 20 mg/kg once or 10 mg/kg twice every day", "method": "as §1"}, "[12]": {"settings": "10 × 2 mg/kg/day p.o., 12th day"}, "[13]": {"settings": "10 × 2 mg/kg/day p.o., 16th day"}, "[14]": {"settings": "10 × 2 mg/kg/day p.o., 19th day"}}}
{"smiles": "C[C@]12CCC(=O)C=C1CC[C@@H]1[C@@H]2[C@@H](O)C[C@@]2(C)[C@H]1CC[C@]2(O)C(=O)CO", "note": "[Hydrocortisone, reference compound]", "values": [{"measurement": "Inflammation Score", "setting": "[1]; 5 mg/kg/day p.o., 16th day, control 11.8", "result": 8.1}, {"measurement": "Inflammation Score", "setting": "[1]; 5 mg/kg/day p.o., 19th day, control 17.0", "result": 9.3}, {"measurement": "Inhibition of edema in left legs", "setting": "[2]; 5 mg/kg/day p.o., 12th day", "result": 57.0, "unit": "%"}, {"measurement": "Inhibition of edema in left legs", "setting": "[2]; 5 mg/kg/day p.o., 16th day", "result": 53.1, "unit": "%"}, {"measurement": "Inhibition of edema in left legs", "setting": "[2]; 5 mg/kg/day p.o., 19th day", "result": 54.7, "unit": "%"}, {"measurement": "Inhibition of edema in right legs", "setting": "[3]; 5 mg/kg/day p.o., 12th day", "result": 90.9, "unit": "%"}, {"measurement": "Inhibition of edema in right legs", "setting": "[3]; 5 mg/kg/day p.o., 16th day", "result": 60.1, "unit": "%"}, {"measurement": "Inhibition of edema in right legs", "setting": "[3]; 5 mg/kg/day p.o., 19th day", "result": 57.8, "unit": "%"}]}
{"smiles": "CC(C)C(=O)c1c(C(C)C)nn2ccccc12", "note": "[KC-404, 3-isobutyryl-2-isopropylpyrazalo[1,5-a]pyridine]", "values": [{"measurement": "effect on the Arthus reaction (type III allergic reaction)", "setting": "[4]", "result": "inhibits"}, {"measurement": "LD50", "setting": "[5]; ip, Female", "result": 500, "unit": "mg/kg"}, {"measurement": "LD50", "setting": "[5]; ip, Male", "result": 460, "unit": "mg/kg"}, {"measurement": "LD50", "setting": "[5]; iv, Female", "result": 146, "unit": "mg/kg"}, {"measurement": "LD50", "setting": "[5]; iv, Male", "result": 160, "unit": "mg/kg"}, {"measurement": "LD50", "setting": "[5]; po, Female", "result": 1860, "unit": "mg/kg"}, {"measurement": "LD50", "setting": "[5]; po, Male", "result": 1880, "unit": "mg/kg"}, {"measurement": "LD50", "setting": "[5]; sc, Female", "result": 3100, "unit": "mg/kg"}, {"measurement": "LD50", "setting": "[5]; sc, Male", "result": 3000, "unit": "mg/kg"}, {"measurement": "Inflammation Score", "setting": "[1]; 20 mg/kg/day p.o., 16th day, control 11.8", "result": 6.6}, {"measurement": "Inflammation Score", "setting": "[1]; 20 mg/kg/day p.o., 19th day, control 17.0", "result": 10.3}, {"measurement": "Inflammation Score", "setting": "[1]; 10 × 2 mg/kg/day p.o., 16th day, control 11.8", "result": 9.0}, {"measurement": "Inflammation Score", "setting": "[1]; 10 × 2 mg/kg/day p.o., 19th day, control 17.0", "result": 11.4}, {"measurement": "cerebral vasodilating effect", "setting": "[6]", "result": "Cerebral vasodilating"}, {"measurement": "Inhibition of edema in left legs", "setting": "[2]; 20 mg/kg/day p.o., 12th day", "result": 71.7, "unit": "%"}, {"measurement": "Inhibition of edema in left legs", "setting": "[2]; 20 mg/kg/day p.o., 16th day", "result": 79.9, "unit": "%"}, {"measurement": "Inhibition of edema in left legs", "setting": "[2]; 20 mg/kg/day p.o., 19th day", "result": 61.1, "unit": "%"}, {"measurement": "Inhibition of edema in left legs", "setting": "[2]; [12]", "result": 50.2, "unit": "%"}, {"measurement": "Inhibition of edema in left legs", "setting": "[2]; [13]", "result": 28.6, "unit": "%"}, {"measurement": "Inhibition of edema in left legs", "setting": "[2]; [14]", "result": 41.9, "unit": "%"}, {"measurement": "Inhibition of edema in right legs", "setting": "[3]; 20 mg/kg/day p.o., 12th day", "result": 44.4, "unit": "%"}, {"measurement": "Inhibition of edema in right legs", "setting": "[3]; 20 mg/kg/day p.o., 16th day", "result": 80.8, "unit": "%"}, {"measurement": "Inhibition of edema in right legs", "setting": "[3]; 20 mg/kg/day p.o., 19th day", "result": 53.1, "unit": "%"}, {"measurement": "Inhibition of edema in right legs", "setting": "[3]; [12]", "result": 19.8, "unit": "%"}, {"measurement": "Inhibition of edema in right legs", "setting": "[3]; [13]", "result": 56.6, "unit": "%"}, {"measurement": "Inhibition of edema in right legs", "setting": "[3]; [14]", "result": 39.9, "unit": "%"}, {"measurement": "bronchodilating effect", "setting": "[7]", "result": "bronchodilating"}, {"measurement": "LD50", "setting": "[8]; ip, Female", "result": 419, "unit": "mg/kg"}, {"measurement": "LD50", "setting": "[8]; ip, Male", "result": 500, "unit": "mg/kg"}, {"measurement": "LD50", "setting": "[8]; iv, Female", "result": 42.5, "unit": "mg/kg"}, {"measurement": "LD50", "setting": "[8]; iv, Male", "result": 43.2, "unit": "mg/kg"}, {"measurement": "LD50", "setting": "[8]; po, Female", "result": 1400, "unit": "mg/kg"}, {"measurement": "LD50", "setting": "[8]; sc, Female", "result": 1370, "unit": "mg/kg"}, {"measurement": "LD50", "setting": "[8]; sc, Male", "result": 1450, "unit": "mg/kg"}, {"measurement": "toxicity", "setting": "[9]", "result": "low in toxicity"}, {"measurement": "effect on type I allergic reaction", "setting": "[10]", "result": "inhibitory effect"}, {"measurement": "inhibition of the production of adjuvant-induced experimental arthritis", "setting": "[11]", "result": "markedly inhibits"}]}
